Experimental data: paper PMC6009879, “Open saccharin-based secondary sulfonamides as potent and selective inhibitors of cancer-related carbonic anhydrase IX and XII isoforms” (Journal of Enzyme Inhibition and Medicinal Chemistry, 2016)

Experiments:
Assay type in all cases: biochemical
hCA I = target: T1, hCA I (Homo sapiens, UniProt P00915); experiment: stopped-flow CO2 hydrase assay, hCA I; conditions: recombinant hCA I; mean from 3 different assays, errors ±5–10%
T1 construct: made in house
Experimental: (§1) An applied photophysics stopped-flow instrument has been used for assaying the CA-catalyzed CO2 hydration activity. Phenol red (0.2 mM) has been used as indicator, working at the absorbance maximum of 557 nm, with 20 mM Hepes (pH 7.5, for α-CAs) as buffer, and 20 mM NaClO4 (for maintaining constant the ionic strength), following the initial rates of the CA-catalyzed CO2 hydration reaction for a period of 10–100 s. The CO2 concentrations ranged from 1.7 to 17 mM for the determination of the kinetic parameters and inhibition constants. […] The uncatalyzed rates were determined in the same manner and subtracted from the total observed rates. Stock solutions of each inhibitor (1 µM) were prepared in distilled-deionized water and dilutions up to 0.1 nM were done thereafter with the assay buffer. […] The inhibition constants were obtained by non-linear least-squares methods using PRISM 3 and the Cheng–Prusoff equation, and represent the average from at least three different determinations. All recombinant CA isoforms were obtained in-house as previously reported[38]^,[39].

hCA II = target: T2, hCA II (Homo sapiens, UniProt P00918); experiment: stopped-flow CO2 hydrase assay, hCA II; conditions: recombinant hCA II; mean from 3 different assays, errors ±5–10%
T2 construct: made in house
Experimental: as §1

hCA IX = target: T3, hCA IX (Homo sapiens, UniProt Q16790); experiment: stopped-flow CO2 hydrase assay, hCA IX; conditions: recombinant hCA IX; mean from 3 different assays, errors ±5–10%
T3 construct: made in house
Experimental: as §1

hCA XII = target: T4, hCA XII (Homo sapiens, UniProt O43570); experiment: stopped-flow CO2 hydrase assay, hCA XII; conditions: recombinant hCA XII; mean from 3 different assays, errors ±5–10%
T4 construct: made in house
Experimental: as §1

T1 sequence (P00915 whole entry): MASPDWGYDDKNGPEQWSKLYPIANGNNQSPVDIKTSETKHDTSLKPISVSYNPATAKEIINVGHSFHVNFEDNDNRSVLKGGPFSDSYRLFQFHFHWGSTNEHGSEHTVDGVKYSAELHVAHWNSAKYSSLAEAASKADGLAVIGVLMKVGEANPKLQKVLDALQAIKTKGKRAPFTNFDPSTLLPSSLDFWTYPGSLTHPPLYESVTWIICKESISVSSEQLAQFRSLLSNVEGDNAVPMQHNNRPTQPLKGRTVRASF
T4 sequence (O43570 25-354): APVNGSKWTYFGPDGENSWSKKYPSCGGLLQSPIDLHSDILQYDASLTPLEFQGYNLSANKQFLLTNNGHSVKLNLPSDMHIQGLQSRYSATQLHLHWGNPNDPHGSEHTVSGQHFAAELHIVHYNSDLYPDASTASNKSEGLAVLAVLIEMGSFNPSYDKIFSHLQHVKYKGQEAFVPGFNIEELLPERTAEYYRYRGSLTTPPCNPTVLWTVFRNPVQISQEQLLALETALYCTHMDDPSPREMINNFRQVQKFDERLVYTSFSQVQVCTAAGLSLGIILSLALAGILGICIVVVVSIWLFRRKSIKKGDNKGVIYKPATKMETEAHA

## O=S(=O)(NCc1c(F)cccc1F)c1ccccc1CO [Compound 17, N-(2,6-difluorobenzyl)-2-(hydroxymethyl)benzenesulfonamide]
hCA I
  Ki: > 10000 nM
hCA II
  Ki: > 10000 nM
hCA IX
  Ki: 296 nM
hCA XII
  Ki: 45 nM

## O=S(=O)(NCc1cccc(C(F)(F)F)c1)c1ccccc1CO [Compound 6, 2-(Hydroxymethyl)-N-(3-(trifluoromethyl)benzyl)benzenesulfonamide]
hCA I
  Ki: > 10000 nM
hCA II
  Ki: > 10000 nM
hCA IX
  Ki: 238 nM
hCA XII
  Ki: 4.4 nM

## Cc1ccc(CNS(=O)(=O)c2ccccc2CO)cc1 [Compound 10, 2-(Hydroxymethyl)-N-(4-methylbenzyl)benzenesulfonamide]
hCA I
  Ki: > 10000 nM
hCA II
  Ki: > 10000 nM
hCA IX
  Ki: 120 nM
hCA XII
  Ki: 5.7 nM

## O=S(=O)(NCc1ccccc1C(F)(F)F)c1ccccc1CO [Compound 2, 2-(Hydroxymethyl)-N-(2-(trifluoromethyl)benzyl)benzenesulfonamide]
hCA I
  Ki: > 10000 nM
hCA II
  Ki: > 10000 nM
hCA IX
  Ki: 200 nM
hCA XII
  Ki: 54 nM

## COc1cccc(C(O)CNS(=O)(=O)c2ccccc2CO)c1 (stereo not drawn) [Compound 21, N-(2-hydroxy-2-(3-methoxyphenyl)ethyl)-2-(hydroxymethyl)benzenesulfonamide]
hCA I
  Ki: > 10000 nM
hCA II
  Ki: > 10000 nM
hCA IX
  Ki: 31 nM
hCA XII
  Ki: 355 nM

## O=S(=O)(NCc1ccc(Cl)cc1)c1ccccc1CO [Compound 15, N-(4-chlorobenzyl)-2-(hydroxymethyl)benzenesulfonamide]
hCA I
  Ki: > 10000 nM
hCA II
  Ki: > 10000 nM
hCA IX
  Ki: 154 nM
hCA XII
  Ki: 48 nM

## N#Cc1ccc(CNS(=O)(=O)c2ccccc2CO)cc1 [Compound 12, N-(4-cyanobenzyl)-2-(hydroxymethyl)benzenesulfonamide]
hCA I
  Ki: > 10000 nM
hCA II
  Ki: > 10000 nM
hCA IX
  Ki: 126 nM
hCA XII
  Ki: 57 nM

## O=[N+]([O-])c1ccc(CNS(=O)(=O)c2ccccc2CO)cc1 [Compound 13, 2-(Hydroxymethyl)-N-(4-nitrobenzyl)benzenesulfonamide]
hCA I
  Ki: > 10000 nM
hCA II
  Ki: > 10000 nM
hCA IX
  Ki: 20 nM
hCA XII
  Ki: 54 nM

## O=S(=O)(NCc1cccc(F)c1)c1ccccc1CO [Compound 8, N-(3-fluorobenzyl)-2-(hydroxymethyl)benzenesulfonamide]
hCA I
  Ki: > 10000 nM
hCA II
  Ki: > 10000 nM
hCA IX
  Ki: 268 nM
hCA XII
  Ki: 247 nM

## O=S(=O)(NCc1ccc(C(F)(F)F)cc1)c1ccccc1CO [Compound 11, 2-(Hydroxymethyl)-N-(4-(trifluoromethyl)benzyl)benzenesulfonamide]
hCA I
  Ki: > 10000 nM
hCA II
  Ki: > 10000 nM
hCA IX
  Ki: 253 nM
hCA XII
  Ki: 7.2 nM

## O=[N+]([O-])c1ccccc1CNS(=O)(=O)c1ccccc1CO [Compound 3, 2-(Hydroxymethyl)-N-(2-nitrobenzyl)benzenesulfonamide]
hCA I
  Ki: > 10000 nM
hCA II
  Ki: > 10000 nM
hCA IX
  Ki: 104 nM
hCA XII
  Ki: 383 nM

## Cc1ccccc1CNS(=O)(=O)c1ccccc1CO [Compound 1, 2-(Hydroxymethyl)-N-(2-methylbenzyl)benzenesulfonamide]
hCA I
  Ki: > 10000 nM
hCA II
  Ki: > 10000 nM
hCA IX
  Ki: 218 nM
hCA XII
  Ki: 4.6 nM

## O=S(=O)(NCc1cccc2ccccc12)c1ccccc1CO [Compound 19, 2-(Hydroxymethyl)-N-(naphthalen-1-ylmethyl)benzenesulfonamide]
hCA I
  Ki: > 10000 nM
hCA II
  Ki: > 10000 nM
hCA IX
  Ki: 294 nM
hCA XII
  Ki: 345 nM

## O=S(=O)(NCc1cccc(Br)c1)c1ccccc1CO [Compound 9, N-(3-bromobenzyl)-2-(hydroxymethyl)-benzenesulfonamide]
hCA I
  Ki: > 10000 nM
hCA II
  Ki: > 10000 nM
hCA IX
  Ki: 267 nM
hCA XII
  Ki: 64 nM

## O=[N+]([O-])c1cccc(CNS(=O)(=O)c2ccccc2CO)c1 [Compound 7, 2-(Hydroxymethyl)-N-(3-nitrobenzyl)benzenesulfonamide]
hCA I
  Ki: > 10000 nM
hCA II
  Ki: > 10000 nM
hCA IX
  Ki: 176 nM
hCA XII
  Ki: 382 nM

## Cc1cccc(CNS(=O)(=O)c2ccccc2CO)c1 [Compound 5, 2-(Hydroxymethyl)-N-(3-methylbenzyl)benzenesulfonamide]
hCA I
  Ki: > 10000 nM
hCA II
  Ki: > 10000 nM
hCA IX
  Ki: 223 nM
hCA XII
  Ki: 4.3 nM

## O=S(=O)(NCc1ccc(Br)cc1)c1ccccc1CO [Compound 16, N-(4-bromobenzyl)-2-(hydroxymethyl)benzenesulfonamide]
hCA I
  Ki: > 10000 nM
hCA II
  Ki: > 10000 nM
hCA IX
  Ki: 145 nM
hCA XII
  Ki: 432 nM

## O=S(=O)(NCc1ccc(F)cc1)c1ccccc1CO [Compound 14, N-(4-fluorobenzyl)-2-(hydroxymethyl)benzenesulfonamide]
hCA I
  Ki: > 10000 nM
hCA II
  Ki: > 10000 nM
hCA IX
  Ki: 26 nM
hCA XII
  Ki: 63 nM

## O=S(=O)(NCc1ccc(Cl)c(Cl)c1)c1ccccc1CO [Compound 18, N-(3,4-dichlorobenzyl)-2-(hydroxymethyl)benzenesulfonamide]
hCA I
  Ki: > 10000 nM
hCA II
  Ki: > 10000 nM
hCA IX
  Ki: 298 nM
hCA XII
  Ki: 40 nM

## O=S(=O)(NCc1ccccc1Br)c1ccccc1CO [Compound 4, N-(2-bromobenzyl)-2-(hydroxymethyl)benzenesulfonamide]
hCA I
  Ki: > 10000 nM
hCA II
  Ki: > 10000 nM
hCA IX
  Ki: 113 nM
hCA XII
  Ki: 323 nM

## O=S(=O)(NCC(O)c1ccccc1)c1ccccc1CO (stereo not drawn) [Compound 20, N-(2-hydroxy-2-phenylethyl)-2-(hydroxymethyl)benzenesulfonamide]
hCA I
  Ki: > 10000 nM
hCA II
  Ki: > 10000 nM
hCA IX
  Ki: 224 nM
hCA XII
  Ki: 64 nM
